Earlier results as cited in article PMC5036784 (Biophysics, 2011).
Like-named read-outs stand apart in the source and are kept apart here.

Conditions: for rate constant of membrane binding kFB / rate constant of membrane dissociation kBF: 19F NMR; for time span of the binding and dissociation: timescale

Structure (SMILES) | rate constant of membrane binding kFB (ref [3]) [s⁻¹] | rate constant of membrane dissociation kBF (ref [3]) [s⁻¹] | time span of the binding and dissociation (ref [3]) | rate constant of membrane binding kFB (303K, ref [4]) [s⁻¹] | rate constant of membrane dissociation kBF (303K, ref [4]) [s⁻¹] | binding free energy ΔG (ref [4]) [kJ/mol] | time span of the binding and dissociation (ref [4])
O=c1[nH]cc(F)c(=O)[nH]1 [5FU, 5-fluoro-1H-pyrimidine-2,4-dione] | 0.2 | 4.1 | 10^−1–10^0 s |  |  |  | 
Oc1ccc(C(c2ccc(O)cc2)(C(F)(F)F)C(F)(F)F)cc1 [FBPA, fluorinated bisphenol A] |  |  |  | 22 to 280 | 68 to 107 | -20 | 10^−3–10^−2 s
